How the values were obtained:
Experiment in all cases: relative viability (nuclei count vs DMSO), 5 days (fraction); higher = more cells survive
NCI-H1395 = system: NCI-H1395
Outline: (§1)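 Relative viability was taken as the ratio of nuclei in treated wells to nuclei in vehicle wells. Lung cancer cell lines in 1536-well plates received compounds by pin tool one day after seeding, either one drug alone or a fixed anchor-drug dose plus five library-drug doses (not always all listed) in √10 steps. Nuclei were counted on 4× images after 5 days of treatment, and values are medians of duplicate plates.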

NCI-H1993 = system: NCI-H1993
Outline: as §1

NCI-H2170 = system: NCI-H2170
Outline: as §1

NCI-H3122 = system: NCI-H3122
Outline: as §1

NCI-H2228 = system: NCI-H2228
Outline: as §1

HOP-62 = system: HOP-62
Outline: as §1

NCI-H2342 = system: NCI-H2342
Outline: as §1

NCI-H2085 = system: NCI-H2085
Outline: as §1

ChaGo-K-1 = system: ChaGo-K-1
Outline: as §1

SK-LU-1 = system: SK-LU-1
Outline: as §1

LCLC-97TM1 = system: LCLC-97TM1
Outline: as §1

NCI-H520 = system: NCI-H520
Outline: as §1

NCI-H2126 = system: NCI-H2126
Outline: as §1

NCI-H1975 = system: NCI-H1975
Outline: as §1

LCLC-103H = system: LCLC-103H
Outline: as §1

NCI-H647 = system: NCI-H647
Outline: as §1

LOU-NH91 = system: LOU-NH91
Outline: as §1

NCI-H2405 = system: NCI-H2405
Outline: as §1

HCC-44 = system: HCC-44
Outline: as §1

EMC-BAC-2 = system: EMC-BAC-2
Outline: as §1

EPLC-272H = system: EPLC-272H
Outline: as §1

NCI-H460 = system: NCI-H460
Outline: as §1

NCI-H322M = system: NCI-H322M
Outline: as §1

SMILES: Oc1nc(-c2ccc(C(F)(F)F)cc2)nc2c1CSCC2 [XAV939] + CC(=O)Nc1cccc(-n2c(=O)n(C3CC3)c(=O)c3c(Nc4ccc(I)cc4F)n(C)c(=O)c(C)c32)c1 [Trametinib] (partner 0.02 µM)
- relative viability (NCI-H1395; first compound 0.08 µM): 1.02
- relative viability (NCI-H1395; first compound 0.253 µM): 0.974
- relative viability (NCI-H1395; first compound 0.8 µM): 1.11
- relative viability (NCI-H1395; first compound 2.53 µM): 0.944
- relative viability (NCI-H1993; first compound 0.08 µM): 0.541
- relative viability (NCI-H1993; first compound 0.253 µM): 0.488
- relative viability (NCI-H1993; first compound 0.8 µM): 0.411
- relative viability (NCI-H1993; first compound 2.53 µM): 0.449
- relative viability (NCI-H2170; first compound 0.08 µM): 0.882
- relative viability (NCI-H2170; first compound 0.253 µM): 0.833
- relative viability (NCI-H2170; first compound 0.8 µM): 0.822
- relative viability (NCI-H2170; first compound 2.53 µM): 0.72
- relative viability (NCI-H3122; first compound 0.08 µM): 0.257
- relative viability (NCI-H3122; first compound 0.253 µM): 0.211
- relative viability (NCI-H3122; first compound 0.8 µM): 0.237
- relative viability (NCI-H3122; first compound 2.53 µM): 0.196
- relative viability (NCI-H2228; first compound 0.08 µM): 0.429
- relative viability (NCI-H2228; first compound 0.253 µM): 0.488
- relative viability (NCI-H2228; first compound 0.8 µM): 0.541
- relative viability (NCI-H2228; first compound 2.53 µM): 0.571
- relative viability (HOP-62; first compound 0.08 µM): 0.392
- relative viability (HOP-62; first compound 0.253 µM): 0.329
- relative viability (HOP-62; first compound 0.8 µM): 0.411
- relative viability (HOP-62; first compound 2.53 µM): 0.312
- relative viability (NCI-H2342; first compound 0.08 µM): 0.834
- relative viability (NCI-H2342; first compound 0.253 µM): 0.781
- relative viability (NCI-H2342; first compound 0.8 µM): 0.717
- relative viability (NCI-H2342; first compound 2.53 µM): 0.446
- relative viability (NCI-H2085; first compound 0.08 µM): 0.587
- relative viability (NCI-H2085; first compound 0.253 µM): 0.436
- relative viability (NCI-H2085; first compound 0.8 µM): 0.432
- relative viability (NCI-H2085; first compound 2.53 µM): 0.314
- relative viability (ChaGo-K-1; first compound 0.08 µM): 0.977
- relative viability (ChaGo-K-1; first compound 0.253 µM): 0.82
- relative viability (ChaGo-K-1; first compound 0.8 µM): 0.907
- relative viability (ChaGo-K-1; first compound 2.53 µM): 0.802
- relative viability (SK-LU-1; first compound 0.08 µM): 0.537
- relative viability (SK-LU-1; first compound 0.253 µM): 0.44
- relative viability (SK-LU-1; first compound 0.8 µM): 0.543
- relative viability (SK-LU-1; first compound 2.53 µM): 0.582
- relative viability (LCLC-97TM1; first compound 0.08 µM): 0.213
- relative viability (LCLC-97TM1; first compound 0.253 µM): 0.199
- relative viability (LCLC-97TM1; first compound 2.53 µM): 0.161
- relative viability (NCI-H520; first compound 0.08 µM): 0.687
- relative viability (NCI-H520; first compound 0.8 µM): 0.501
- relative viability (NCI-H520; first compound 2.53 µM): 0.427
- relative viability (NCI-H2126; first compound 0.08 µM): 0.458
- relative viability (NCI-H2126; first compound 0.253 µM): 0.44
- relative viability (NCI-H2126; first compound 0.8 µM): 0.478
- relative viability (NCI-H2126; first compound 2.53 µM): 0.392
- relative viability (NCI-H1975; first compound 0.08 µM): 0.359
- relative viability (NCI-H1975; first compound 0.253 µM): 0.296
- relative viability (NCI-H1975; first compound 0.8 µM): 0.35
- relative viability (NCI-H1975; first compound 2.53 µM): 0.275
- relative viability (LCLC-103H; first compound 0.08 µM): 0.704
- relative viability (LCLC-103H; first compound 0.253 µM): 0.641
- relative viability (LCLC-103H; first compound 0.8 µM): 0.672
- relative viability (LCLC-103H; first compound 2.53 µM): 0.676
- relative viability (NCI-H647; first compound 0.08 µM): 0.446
- relative viability (NCI-H647; first compound 0.253 µM): 0.433
- relative viability (NCI-H647; first compound 0.8 µM): 0.386
- relative viability (NCI-H647; first compound 2.53 µM): 0.372
- relative viability (LOU-NH91; first compound 0.08 µM): 0.811
- relative viability (LOU-NH91; first compound 0.253 µM): 0.769
- relative viability (LOU-NH91; first compound 0.8 µM): 0.745
- relative viability (LOU-NH91; first compound 2.53 µM): 0.742
- relative viability (NCI-H2405; first compound 0.08 µM): 0.685
- relative viability (NCI-H2405; first compound 0.253 µM): 0.591
- relative viability (NCI-H2405; first compound 0.8 µM): 0.607
- relative viability (NCI-H2405; first compound 2.53 µM): 0.412
- relative viability (HCC-44; first compound 0.08 µM): 1.04
- relative viability (HCC-44; first compound 0.253 µM): 0.843
- relative viability (HCC-44; first compound 0.8 µM): 0.927
- relative viability (HCC-44; first compound 2.53 µM): 0.924
- relative viability (EMC-BAC-2; first compound 0.08 µM): 0.972
- relative viability (EMC-BAC-2; first compound 0.253 µM): 0.875
- relative viability (EMC-BAC-2; first compound 0.8 µM): 0.78
- relative viability (EMC-BAC-2; first compound 2.53 µM): 0.671
- relative viability (EPLC-272H; first compound 0.08 µM): 0.29
- relative viability (EPLC-272H; first compound 0.253 µM): 0.251
- relative viability (EPLC-272H; first compound 0.8 µM): 0.274
- relative viability (EPLC-272H; first compound 2.53 µM): 0.23
- relative viability (NCI-H460; first compound 0.08 µM): 0.164
- relative viability (NCI-H460; first compound 0.253 µM): 0.0959
- relative viability (NCI-H460; first compound 0.8 µM): 0.124
- relative viability (NCI-H460; first compound 2.53 µM): 0.111
- relative viability (NCI-H322M; first compound 0.08 µM): 0.601
- relative viability (NCI-H322M; first compound 0.253 µM): 0.526
- relative viability (NCI-H322M; first compound 0.8 µM): 0.555
- relative viability (NCI-H322M; first compound 2.53 µM): 0.48
